Experimental data: PubChem BioAssay AID256 (DTP/NCI, 2004)
Several values for one entry are separate records, joined by “and”; a condition that tells them apart may be missing. Equal values may be shown once. Toxic doses and inconclusive results are not listed.

System: CD2F1 mice, L1210 leukemia ip, survival T/C
Assay: NCI In Vivo Anticancer Drug Screen. Data for tumor model L1210 Leukemia (intraperitoneal) in CD2F1 (CDF1) mice
Conditions: higher = longer survival
Method in brief: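 Vehicle-treated tumor-bearing mice served as controls (C) for compound-treated mice (T). Reported figure is T divided by C.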

[1] = endpoint: mean survival time, dose: 100.0 mg/kg/injection, schedule: Q04DX002 (ip), vehicle: saline with Tween-80
[2] = endpoint: mean survival time, dose: 200.0 mg/kg/injection, schedule: Q04DX002 (ip), vehicle: saline with Tween-80
[3] = endpoint: mean survival time, dose: 400.0 mg/kg/injection, schedule: Q04DX002 (ip), vehicle: saline with Tween-80
[4] = endpoint: mean survival time, dose: 50.0 mg/kg/injection, schedule: Q01DX009 (ip), vehicle: Klucel (hydroxypropylcellulose) (HPC)
[5] = endpoint: mean survival time, dose: 100.0 mg/kg/injection, schedule: Q01DX009 (ip), vehicle: Klucel (hydroxypropylcellulose) (HPC)
[6] = endpoint: mean survival time, dose: 100.0 mg/kg/injection, schedule: Q04DX003 (ip), vehicle: saline
[7] = endpoint: mean survival time, dose: 200.0 mg/kg/injection, schedule: Q04DX003 (ip), vehicle: saline
[8] = endpoint: mean survival time, dose: 400.0 mg/kg/injection, schedule: Q04DX003 (ip), vehicle: saline

O=c1[nH]cnc2nn(C3OC(CO)C(O)C3O)nc12 (stereo not given)
T/C (endpoint: median survival time, dose: 12.5 mg/kg/injection, schedule: Q01DX005 (ip), vehicle: saline): 94 % of control
T/C (endpoint: median survival time, dose: 25.0 mg/kg/injection, schedule: Q01DX005 (ip), vehicle: saline): 94 % of control
T/C (endpoint: median survival time, dose: 50.0 mg/kg/injection, schedule: Q01DX005 (ip), vehicle: saline): 91 % of control
T/C (endpoint: median survival time, dose: 100.0 mg/kg/injection, schedule: Q01DX005 (ip), vehicle: saline): 97 % of control and 103 % of control
T/C (endpoint: median survival time, dose: 200.0 mg/kg/injection, schedule: Q01DX005 (ip), vehicle: saline): 101 % of control and 107 % of control
T/C (endpoint: median survival time, dose: 400.0 mg/kg/injection, schedule: Q01DX005 (ip), vehicle: saline): 103 % of control

Cc1ccc(S(=O)(=O)NCCN(CCNS(=O)(=O)c2ccc(C)cc2)S(=O)(=O)c2ccc(C)cc2)cc1
T/C (endpoint: mean survival time, dose: 12.5 mg/kg/injection, schedule: Q01DX009 (ip), vehicle: other): 88 % of control
T/C (endpoint: mean survival time, dose: 25.0 mg/kg/injection, schedule: Q01DX009 (ip), vehicle: other): 86 % of control
T/C (endpoint: mean survival time, dose: 50.0 mg/kg/injection, schedule: Q01DX009 (ip), vehicle: other): 86 % of control
T/C (endpoint: mean survival time, dose: 100.0 mg/kg/injection, schedule: Q01DX009 (ip), vehicle: other): 92 % of control
T/C (endpoint: mean survival time, dose: 200.0 mg/kg/injection, schedule: Q01DX009 (ip), vehicle: other): 105 % of control

O=C1C=C(c2ccccc2)C(=O)C(c2ccccc2)=C1c1ccccc1
T/C [1]: 94 % of control
T/C [2]: 94 % of control
T/C [3]: 90 % of control

Nc1ccc(S(=O)(=O)O)c2ccccc12
T/C [4]: 86 % of control
T/C [5]: 104 % of control
T/C [6]: 97 % of control
T/C (endpoint: mean survival time, dose: 200.0 mg/kg/injection, schedule: Q01DX009 (ip), vehicle: Klucel (hydroxypropylcellulose) (HPC)): 104 % of control
T/C [7]: 101 % of control
T/C [8]: 103 % of control

COc1ccc(CC2C(=O)NC(C)C(=O)N(C)C3C(=O)N(C)C(Cc4ccc(O)c(c4)Oc4ccc(cc4)C3O)C(=O)NC(C)C(=O)NC(C)C(=O)N2C)cc1 (stereo not given)
T/C (endpoint: mean survival time, dose: 0.06 mg/kg/injection, schedule: Q01DX009 (ip), vehicle: saline): 106 % of control
T/C (endpoint: mean survival time, dose: 0.12 mg/kg/injection, schedule: Q01DX009 (ip), vehicle: saline): 113 % of control and 102 % of control and 104 % of control
T/C (endpoint: mean survival time, dose: 0.25 mg/kg/injection, schedule: Q01DX009 (ip), vehicle: Klucel (hydroxypropylcellulose) (HPC)): 113 % of control and 110 % of control
T/C (endpoint: mean survival time, dose: 0.25 mg/kg/injection, schedule: Q01DX009 (ip), vehicle: saline): 114 % of control and 97 % of control and 108 % of control
T/C (endpoint: mean survival time, dose: 0.5 mg/kg/injection, schedule: Q01DX009 (ip), vehicle: Klucel (hydroxypropylcellulose) (HPC)): 113 % of control and 103 % of control
T/C (endpoint: mean survival time, dose: 0.5 mg/kg/injection, schedule: Q01DX009 (ip), vehicle: saline): 104 % of control and 109 % of control
T/C (endpoint: mean survival time, dose: 1.0 mg/kg/injection, schedule: Q01DX009 (ip), vehicle: Klucel (hydroxypropylcellulose) (HPC)): 113 % of control and 110 % of control
T/C (endpoint: mean survival time, dose: 1.0 mg/kg/injection, schedule: Q01DX009 (ip), vehicle: saline): 113 % of control and 114 % of control and 110 % of control
T/C (endpoint: mean survival time, dose: 2.0 mg/kg/injection, schedule: Q01DX009 (ip), vehicle: Klucel (hydroxypropylcellulose) (HPC)): 113 % of control and 111 % of control
T/C (endpoint: mean survival time, dose: 2.0 mg/kg/injection, schedule: Q01DX009 (ip), vehicle: saline): 116 % of control and 123 % of control
T/C (endpoint: mean survival time, dose: 4.0 mg/kg/injection, schedule: Q01DX009 (ip), vehicle: Klucel (hydroxypropylcellulose) (HPC)): 119 % of control
T/C (endpoint: mean survival time, dose: 4.0 mg/kg/injection, schedule: Q01DX009 (ip), vehicle: saline): 88 % of control and 96 % of control

CC1C=COCCO1 (stereo not given) (tested in a mixture with another compound)
T/C (endpoint: mean survival time, dose: 100.0 mg/kg/injection, schedule: Q04DX003 (ip), vehicle: acetone): 97 % of control
T/C (endpoint: mean survival time, dose: 200.0 mg/kg/injection, schedule: Q04DX003 (ip), vehicle: acetone): 98 % of control
T/C (endpoint: mean survival time, dose: 400.0 mg/kg/injection, schedule: Q04DX003 (ip), vehicle: acetone): 98 % of control

CCCc1cc(=O)[nH]c(SCC(=O)O)n1
T/C [1]: 98 % of control
T/C [2]: 98 % of control
T/C [3]: 92 % of control

CC1(C)CCC23CCC4(C)C(CCC5C6(C)CCC(O)C(C)(C)C6CCC54C)C2C1OC3=O (stereo not given)
T/C (endpoint: mean survival time, dose: 6.25 mg/kg/injection, schedule: Q04DX002 (ip), vehicle: saline with Tween-80): 100 % of control
T/C (endpoint: mean survival time, dose: 12.5 mg/kg/injection, schedule: Q04DX002 (ip), vehicle: saline with Tween-80): 103 % of control
T/C (endpoint: mean survival time, dose: 25.0 mg/kg/injection, schedule: Q04DX002 (ip), vehicle: saline with Tween-80): 88 % of control and 103 % of control

O=CC(CO)CC(C=O)n1cnc2c(=O)[nH]cnc21 (stereo not given)
T/C (endpoint: mean survival time, dose: 60.0 mg/kg/injection, schedule: Q01DX009 (ip), vehicle: saline): 123 % of control
T/C (endpoint: mean survival time, dose: 89.0 mg/kg/injection, schedule: Q01DX009 (ip), vehicle: saline): 116 % of control
T/C (endpoint: mean survival time, dose: 300.0 mg/kg/injection, schedule: Q01DX009 (ip), vehicle: saline): 159 % of control
T/C (endpoint: mean survival time, dose: 300.0 mg/kg/injection, schedule: Q04DX003 (ip), vehicle: saline): 150 % of control
T/C (endpoint: median survival time, dose: 37.5 mg/kg/injection, schedule: Q01DX009 (ip), vehicle: saline): 113 % of control and 124 % of control

O=C1NC(c2ccccc2)C2/C=C\CCCCC12 (stereo not given)
T/C (endpoint: mean survival time, dose: 75.0 mg/kg/injection, schedule: Q04DX002 (ip), vehicle: saline with Tween-80): 93 % of control
T/C (endpoint: mean survival time, dose: 150.0 mg/kg/injection, schedule: Q04DX002 (ip), vehicle: saline with Tween-80): 96 % of control
T/C (endpoint: mean survival time, dose: 300.0 mg/kg/injection, schedule: Q04DX002 (ip), vehicle: saline with Tween-80): 93 % of control

CC1(C)CC(O)CC(C)(C)N1O
T/C (endpoint: mean survival time, dose: 50.0 mg/kg/injection, schedule: Q01DX009 (ip), vehicle: saline with Tween-80): 102 % of control
T/C (endpoint: mean survival time, dose: 100.0 mg/kg/injection, schedule: Q01DX009 (ip), vehicle: saline with Tween-80): 103 % of control
T/C [6]: 97 % of control
T/C (endpoint: mean survival time, dose: 200.0 mg/kg/injection, schedule: Q01DX009 (ip), vehicle: saline with Tween-80): 96 % of control
T/C [7]: 94 % of control
T/C [8]: 97 % of control

O=C1CSC(=S)N1/N=C/c1cc(Cl)cc(Cl)c1O
T/C (endpoint: mean survival time, dose: 75.0 mg/kg/injection, schedule: Q01DX001 (ip), vehicle: other): 90 % of control
T/C (endpoint: mean survival time, dose: 150.0 mg/kg/injection, schedule: Q01DX001 (ip), vehicle: other): 102 % of control

CC(=O)NC(CC(=O)O)C(=O)NNC(=O)c1ccccc1O (stereo not given)
T/C (endpoint: mean survival time, dose: 25.0 mg/kg/injection, schedule: Q01DX009 (ip), vehicle: Klucel (hydroxypropylcellulose) (HPC)): 108 % of control
T/C [4]: 115 % of control
T/C [5]: 104 % of control

CC(C)(C)OOC(=O)c1ccccn1
T/C [1]: 95 % of control
T/C [2]: 95 % of control

CN(C)C1c2cc(Br)ccc2-c2ccc(Br)cc21
T/C (endpoint: mean survival time, dose: 50.0 mg/kg/injection, schedule: Q01DX001 (ip), vehicle: carboxymethylcellulose (CMC)): 101 % of control
T/C (endpoint: mean survival time, dose: 100.0 mg/kg/injection, schedule: Q01DX001 (ip), vehicle: carboxymethylcellulose (CMC)): 101 % of control
T/C (endpoint: mean survival time, dose: 200.0 mg/kg/injection, schedule: Q01DX001 (ip), vehicle: carboxymethylcellulose (CMC)): 104 % of control
T/C (endpoint: mean survival time, dose: 400.0 mg/kg/injection, schedule: Q01DX001 (ip), vehicle: carboxymethylcellulose (CMC)): 104 % of control

Cc1nc2n[nH]c(N)c2nc1C
T/C (endpoint: mean survival time, dose: 100.0 mg/kg/injection, schedule: Q01DX009 (ip), vehicle: saline): 100 % of control
T/C (endpoint: mean survival time, dose: 200.0 mg/kg/injection, schedule: Q01DX009 (ip), vehicle: saline): 106 % of control
T/C (endpoint: mean survival time, dose: 400.0 mg/kg/injection, schedule: Q01DX009 (ip), vehicle: saline): 106 % of control

O=c1cc(CCl)nc2c3ncn(C4OC(CO)C(O)C4O)c3ncn12 (stereo not given)
T/C (endpoint: median survival time, dose: 12.5 mg/kg/injection, schedule: Q01DX005 (ip), vehicle: saline with Tween-80): 105 % of control
T/C (endpoint: median survival time, dose: 25.0 mg/kg/injection, schedule: Q01DX005 (ip), vehicle: saline with Tween-80): 102 % of control
T/C (endpoint: median survival time, dose: 50.0 mg/kg/injection, schedule: Q01DX005 (ip), vehicle: saline with Tween-80): 98 % of control
T/C (endpoint: median survival time, dose: 100.0 mg/kg/injection, schedule: Q01DX005 (ip), vehicle: saline with Tween-80): 95 % of control
T/C (endpoint: median survival time, dose: 200.0 mg/kg/injection, schedule: Q01DX005 (ip), vehicle: saline with Tween-80): 98 % of control

Cc1cc(=O)n(C2CCCCC2)c(=NC2CCCCC2)o1
T/C [1]: 100 % of control
T/C [2]: 95 % of control
T/C [3]: 95 % of control

NC(=O)c1ccn(C2OC(CO)C(O)C2O)n1 (stereo not given)
T/C (endpoint: mean survival time, dose: 200.0 mg/kg/injection, schedule: Q01DX005 (ip), vehicle: other): 106 % of control
T/C (endpoint: mean survival time, dose: 400.0 mg/kg/injection, schedule: Q01DX005 (ip), vehicle: other): 107 % of control
T/C (endpoint: mean survival time, dose: 800.0 mg/kg/injection, schedule: Q01DX005 (ip), vehicle: other): 117 % of control
